Source: patent publication US12275685B2, “Oligo-benzamide analogs and their use in cancer treatment” (Board of Regents, The University of Texas System, priority 2018, dated 2025)

Columns and labels:
[1] = test system: pancreatic cancer MiaPaca cells; experiment: ER stress in pancreatic cancer cells by electron microscopy; assay type: cell-based
Text: The basal level of expression of endoplasmic reticulum stress and unfolded protein response correlates with TK41 activity (FIG. 28). Modulation of the level of these stress proteins affects the activity of TK41. Thus, the basal level of expression of endoplasmic reticulum stress and unfolded protein response proteins may serve as a biomarker to predict response to TK41. […] Without wishing to be bound by any particular theory, the mechanism of action of TK41 may operate comprise targeting either ER or TLX and inducing endoplasmic reticulum stress, subsequent apoptosis, and blocking autophagic fusion (FIG. 30).

LIPA = molecular target: T1, LIPA (Homo sapiens, UniProt P38571); experiment: Biotinylated ERX-41 pulldown; assay type: binding; conditions: WT-LIPA and H274Y MT-LIPA, not DLXXLL or L242P MT-LIPA
T1 construct: expressed in transfected cells; host or cells: SUM-159 cells with LIPA KO, reconstituted with LIPA plasmid constructs
T1 sequence (P38571 22-399): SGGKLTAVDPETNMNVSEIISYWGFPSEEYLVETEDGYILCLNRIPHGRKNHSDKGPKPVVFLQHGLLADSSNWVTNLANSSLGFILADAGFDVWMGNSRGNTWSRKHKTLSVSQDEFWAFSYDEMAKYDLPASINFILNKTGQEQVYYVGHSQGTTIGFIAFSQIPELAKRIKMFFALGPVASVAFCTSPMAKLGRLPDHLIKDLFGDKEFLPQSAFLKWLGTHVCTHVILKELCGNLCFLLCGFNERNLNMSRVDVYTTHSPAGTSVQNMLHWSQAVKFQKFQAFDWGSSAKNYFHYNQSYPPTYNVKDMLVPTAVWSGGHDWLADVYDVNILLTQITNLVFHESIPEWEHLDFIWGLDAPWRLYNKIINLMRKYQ
Text: FIGS. 39A-N: (FIGS. 39A-E) Predicted binding mode of ERX-41 (colored in green) on the human lysosomal acid lipase (LAL, PDB code: 6V7N, LXXLL (SEQ ID NO: 1) domain colored in orange). (FIG. 39F) PDB structure of LAL protein showing relative positions of the catalytic domain (with H274Y MT) and the LXXLL (SEQ ID NO: 1) domain (L242P MT). (FIG. 39G) Evaluation of the effect of ERX-41 and lalistat (known lipase inhibitor) on lipase activity of parental SUM-159 (WT) and SUM-159 cells with LIPA KO. (FIG. 39H) Evaluation of basal lipase activity in parental SUM-159 (WT), SUM-159 cells with LIPA KO (KO), SUM-159 cells with LIPA KO and with reconstitution of either WT LIPA (KO+WT), H274Y MT-LIPA (KO+H274Y), DLXXLL (SEQ ID NO: 2) MT-LIPA (KO+DLXXLL (SEQ ID NO: 2)) or L242P MT-LIPA (KO+L242P). Protein expression of LAL and control vinculin in these cells are shown below (FIG. 391) Cellular lysates from described SUM-159 cells were incubated with biotinylated ERX-11 or biotinylated ERX-41 and then subject to a streptavidin column. Elutants were then evaluated for LIPA pulldown by western blotting. (FIG. 39J) Dose response curve to increasing concentrations of ERX-41 in described SUM-159 cells. (FIGS. 39K-M) Effect of vehicle or 1 μM ERX-41 on induction of UPR genes at the protein level (FIG. 39K) or RNA level (FIGS. 39L-M). […]

CC(C)COc1cc(C(=O)Nc2ccc(C(=O)N[C@H]3CC[C@H](C)CC3)cc2OCC(C)C)ccc1NC(=O)c1ccc([N+](=O)[O-])c(OCCO)c1 [TK41]
induction of endoplasmic reticulum stress in MiaPaca [1]: Endoplasmic reticulum stress was also induced
interaction with LIPA (LIPA): direct interaction
